Holding throughout (experiment): inhibition of tumour cell growth, NCI panel, 48 h
Experiment [1] deals with KM12 colon.
Experiment [2] relates to ACHN renal.
The subject of experiment [3] is A549 NSCLC.
Experiment [4] relates to OVCAR-3 ovarian.
Experiment [5] relates to PC-3 prostate.
The subject of experiment [6] is NCI-H522 lung.
In experiment [7] the test system is OVCAR-8 ovarian.
Experiment [8] deals with SF-539 CNS.
The test system of experiment [9] is CAKI-1 renal.
In experiment [10] the test system is SF-268 CNS.
Experiment [11] relates to UO-31 renal.
Experiment [12] deals with SF-295 CNS.
Experiment [13] deals with U251 CNS.
The test system of experiment [14] is NCI-H460 lung.
For experiment [15], the system named is NCI/ADR-RES ovarian.
The subject of experiment [16] is DU-145 prostate.
Experiment [17] has as its system NCI-H226 lung.
Experiment [18] has as its system SNB-75 CNS.
Experiment [19] has as its system SK-MEL-28 melanoma.
Experiment [20] has as its system HCT-116 colon.

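Protocol summary: plate cells (96-well), add compound at 5 concentrations, incubate 48 h, interpolate endpoints linearly. TGI: total growth inhibition.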 Where a SMILES comes first, the peptide text is derived from it. The star is where a group is joined. Boc = CC(C)(C)OC(=O)*

Turning to `CC(OCc1ccccc1)C(NC(=O)C1CSSCC(NC(=O)C(Cc2ccccc2)NC(=O)OCc2ccccc2)C(=O)NC(Cc2ccccc2)C(=O)NC(Cc2cn(C=O)c3ccccc23)C(=O)NC(CCCCNC(=O)OCc2ccccc2)C(=O)NC(C(C)OCc2ccccc2)C(=O)N1)C(N)=O` (centres undefined), the TGI in experiment [1] is over 55.5 µM; in experiment [2], over 100 µM; in [3], over 100 µM; in experiment [4], 34 µM; in [5] it was over 52.4 µM; in experiment [6], 38.5 µM. Moreover, the TGI in experiment [7], in experiment [8], in [9], in experiment [10], in [11] and in experiment [12] was over 100 µM throughout. The TGI is over 70.7 µM in experiment [13]; over 61.8 µM in [14]; over 100 µM in experiment [15]; over 100 µM in experiment [16]; over 100 µM in [17]; over 71.3 µM in [18]. The TGI in experiment [19] is over 100 µM; in experiment [20], 98.7 µM.

Take `O=C(NC/C(Cl)=C/Cl)Nc1cccc2c1CCCC2`: the TGI in experiment [1], in experiment [2], in [3], in [4], in [5] and in [6] was over 100 µM each time. The TGI in experiment [7], in [8], in [9], in experiment [10], in experiment [11] and in experiment [12] was over 100 µM each time. The TGI in experiment [13], in experiment [14], in [15], in experiment [16], in [17] and in experiment [18] was over 100 µM in each case. Besides, the TGI in experiment [19] and in experiment [20] was over 100 µM throughout.

As to `FC(F)(F)C1(C(F)(F)F)C2CCC3(CC(F)(F)C(F)(F)S3)C1C2` (centres undefined), the TGI was over 100 µM in experiment [1]; 98.5 µM in experiment [2]; over 100 µM in experiment [3]; 35.9 µM in experiment [4]; over 100 µM in [5]; over 100 µM in experiment [6]. In addition, the TGI in experiment [7] is over 100 µM; in [8] it was over 100 µM; in experiment [9], over 100 µM; in experiment [10] it was over 100 µM; in experiment [11] it was 68.3 µM; in experiment [12] it was over 100 µM. The TGI in experiment [13], in [14], in experiment [15], in [16], in experiment [17] and in experiment [18] was over 100 µM each time. For the same compound, the TGI in experiment [19] is over 100 µM; in experiment [20], 42.5 µM.

Take `COP(=O)(C(/C=C/c1ccccc1)OC(C)=O)[C@@H]1CCCC[C@H]1N(CC(C)(C)C)C(C)=O` (some centres undefined): the TGI in experiment [1] was over 100 µM; in experiment [2], 30.7 µM; in [3], 47.3 µM; in experiment [4], 31.9 µM; in [5], 37.4 µM; in experiment [6] it was 27.9 µM. In addition, the TGI came to 35.6 µM in [7]; 33.4 µM in experiment [8]; 92.6 µM in experiment [9]; 40.8 µM in experiment [10]; 27.9 µM in experiment [11]; 39.9 µM in experiment [12]. The TGI came to 31.7 µM in experiment [13]; 28.6 µM in experiment [14]; 42.2 µM in [15]; 32.5 µM in [16]; 27 µM in [17]; 22.7 µM in experiment [18]. The TGI in experiment [19] is 53.1 µM; in experiment [20], 25.6 µM.

Take `CC(=O)NNc1nc(C)c(C(/C=C/c2ccc(NC(C)=O)cc2)=N/NS(=O)(=O)c2ccc(C)cc2)s1`: the TGI in [1], in experiment [2], in [3], in [4], in [5] and in [6] was over 100 µM in each case. In addition, the TGI in experiment [7], in [8], in experiment [9], in experiment [10], in experiment [11] and in experiment [12] was over 100 µM throughout. The TGI in experiment [13], in experiment [14], in experiment [15], in experiment [16], in [17] and in experiment [18] was over 100 µM each time. In addition, the TGI in experiment [19] and in experiment [20] was over 100 µM each time.

`CCOC(=O)CC(N1CC1)N1CC1`: the TGI in experiment [1], in experiment [2], in experiment [3], in [4], in [5] and in experiment [6] was over 10 µM in each case. Further, the TGI in experiment [8], in [9], in experiment [10], in [11], in [12] and in [13] was over 10 µM throughout. Moreover, the TGI in experiment [14], in experiment [15], in [16], in experiment [17], in [18] and in [19] was over 10 µM each time. In experiment [20], the TGI is over 10 µM.

In the case of `CN(C)/C=N/S(=O)(=O)c1nn2c(C=O)c(-c3ccc([N+](=O)[O-])cc3)nc2s1`, the TGI in experiment [1] was 42.3 µM; in experiment [2], 10.5 µM; in [3], over 100 µM; in experiment [4], 18 µM; in [5], over 51.9 µM; in experiment [6], 3.86 µM. Further, the TGI is 47.4 µM in experiment [7]; 71.4 µM in [8]; 7.13 µM in experiment [9]; over 72.9 µM in experiment [10]; 13.2 µM in experiment [11]; over 100 µM in experiment [12]. Moreover, the TGI in [13] was 41.6 µM; in [14], over 85.9 µM; in experiment [15], over 100 µM; in experiment [16], over 41.6 µM; in experiment [17] it was over 95.1 µM; in experiment [18] it was over 86.9 µM. The values for the TGI in experiment [19] and in experiment [20] were 18.3 µM and 6.51 µM, respectively.

Regarding `Cc1cc(=O)[nH]c2c3c(ccc12)OC(C)(C)C=C3`, the TGI is over 100 µM in experiment [1]; over 100 µM in experiment [2]; over 100 µM in experiment [3]; over 27.7 µM in experiment [4]; over 100 µM in experiment [5]; 67.4 µM in experiment [6]. For the same compound, the TGI was over 100 µM in [7]; over 23.8 µM in experiment [8]; over 100 µM in experiment [9]; over 100 µM in experiment [10]; over 100 µM in experiment [11]; over 80.4 µM in experiment [12]. In addition, the TGI in [13] is over 47.4 µM; in experiment [14], over 100 µM; in experiment [15] it was over 100 µM; in experiment [16] it was over 100 µM; in [17], over 33.6 µM; in experiment [18], 87.9 µM. The TGI is over 100 µM in [19] and over 50.1 µM in experiment [20].

On to `Cc1cc(C)c2c(c1)C(=O)C1(C2)Cc2c(ccc(C)c2C)C1=O` (centres undefined), for which the TGI in experiment [1], in experiment [2], in experiment [3], in [4], in [5] and in experiment [6] was over 100 µM in each case. Further, the TGI in experiment [7], in [8], in experiment [9], in [10], in experiment [11] and in experiment [12] was over 100 µM each time. Moreover, the TGI in experiment [13], in experiment [14], in experiment [15], in experiment [16], in [17] and in experiment [18] was over 100 µM each time. Further, the TGI in [19] and in experiment [20] was over 100 µM in each case.

Regarding `CCOC(=O)C(CC(C)C)NC(=O)C(Cc1ccccc1)NC(=O)CNC(=O)OC(C)(C)C` (stereo not drawn) (Boc-Gly-Phe-Leu-OEt; configuration not given here), the TGI in [1] amounted to 37.5 µM; in [2] it was 30.8 µM; in experiment [3], 44.1 µM; in experiment [4], 34.4 µM; in [5], 35.7 µM; in experiment [6], 34.8 µM. The TGI is 46 µM in experiment [7]; 28.5 µM in [8]; 23.2 µM in [9]; 43.3 µM in experiment [10]; over 100 µM in [11]; 78.5 µM in [12]. In addition, the TGI was 31.9 µM in experiment [13]; 26.6 µM in experiment [14]; over 100 µM in experiment [15]; 43.6 µM in experiment [16]; 41 µM in experiment [17]; 38.6 µM in experiment [18]. The values for the TGI in experiment [19] and in experiment [20] were 31.5 µM and 32.6 µM, respectively.

For `COc1ccc2[nH]c3c(C)c4cnccc4c(C)c3c2c1`, the TGI was 2.83 µM in experiment [1]; over 10 µM in [2]; 3.65 µM in experiment [3]; 2.43 µM in experiment [4]; over 10 µM in experiment [5]; 4.43 µM in experiment [6]. The TGI is 2.2 µM in experiment [7]; 3.3 µM in experiment [8]; over 10 µM in experiment [9]; over 10 µM in experiment [10]; over 10 µM in experiment [12]; 3.24 µM in [13]. Also, the TGI is 3.58 µM in [14]; 6.94 µM in experiment [15]; 9.93 µM in experiment [16]; 9.27 µM in experiment [17]; over 10 µM in experiment [18]; 3.44 µM in experiment [19]. In experiment [20], this compound displayed a TGI of 2.5 µM.

Regarding `COc1ccc(C(=O)c2ccc(-n3c4ccccc4c4ccc5c(c43)C(=O)C=CC5=O)cc2)cc1`, the TGI in experiment [1] is 10 µM; in experiment [2], 1.8 µM; in [3], 10.8 µM; in experiment [4], 2.68 µM; in [5] it was 3.3 µM; in experiment [6], 0.936 µM. Also, the TGI in experiment [8] came out at 5.78 µM; in experiment [9], 0.366 µM; in experiment [10] it was 2.33 µM; in experiment [11], 1.07 µM; in experiment [12] it was 17.1 µM; in experiment [13], 3.54 µM. For the same compound, the TGI is 19.3 µM in experiment [14]; over 21.3 µM in experiment [15]; over 21.8 µM in experiment [16]; 69.4 µM in experiment [17]; over 30.9 µM in [18]; 2.77 µM in experiment [20].

`CCOC(=O)CCc1c(C)[nH]c2c(C)c3c([nH]c4ccc(Cl)cc43)c(C)c2c1=O`: the TGI in experiment [1] is 87 µM; in [2], 28.9 µM; in experiment [3], 23.5 µM; in [5], over 100 µM; in experiment [6], 24.1 µM; in experiment [7], 83.8 µM. Moreover, the TGI in [8] worked out at 28.7 µM; in experiment [9] it was 49.5 µM; in experiment [10], 76.7 µM; in [11], 40.6 µM; in experiment [12], 22.1 µM; in [13], 43.4 µM. For the same compound, the TGI was 6.11 µM in experiment [14]; 54 µM in [15]; over 100 µM in experiment [16]; 46.5 µM in [17]; 30.9 µM in [18]; 46.1 µM in experiment [19]. For the same compound, in [20], the TGI worked out at 38.7 µM.

On to `c1ccc2nc3cc4c(cc3nc2c1)NC12CCCCC1CC1=C(CCCC1)N42` (centres undefined), for which the TGI in [1] is 8.14 µM; in experiment [2], over 10 µM; in experiment [3] it was over 10 µM; in [4] it was 5.03 µM; in [5] it was 6.64 µM; in experiment [6], 8.37 µM. Moreover, the TGI in [7] is over 10 µM; in [8] it was 7.7 µM; in experiment [9], over 10 µM; in experiment [10], over 10 µM; in [12], over 10 µM; in experiment [13] it was over 10 µM. In addition, the TGI was over 10 µM in experiment [14]; over 10 µM in [15]; over 10 µM in experiment [16]; 6.57 µM in experiment [17]; 7.06 µM in experiment [18]; over 10 µM in experiment [19]. In experiment [20], the TGI is over 10 µM.

These data come from PubChem BioAssay (NCI).
